According to US20250129104A1, “7H-PYRROLO[2,3-D]PYRIMIDINES AND PREPARATION AND USES THEREOF” (BioSplice Therapeutics, Inc., priority 2021, published 2025):

What follows are molecules tested against recombinant DYRK1A kinase (Homo sapiens (Human), UniProt Q13627) (assay: DYRK1A kinase assay (Ser/Thr 18 peptide Z-lyte FRET assay)). Details: DYRK1A kinase activity; 15 μM ATP, 1 h room temperature; method text calls the value IC50.
Format: biochemical
Outline: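 FRET Z-lyte read-out (coumarin/fluorescein ratio, % phosphorylation) after 1 h development; IC50 from non-linear curve fit. Reaction: 0.25 μg/mL recombinant human DYRK1A, Ser/Thr 18 peptide 4 μM, ATP 15 μM, compound in 11-point 1:3 series from 10 μM, 1 h, room temperature, duplicate wells.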

Row | Structure (SMILES) | EC50 [nM]
1 | COc1nc(N[C@H](C)C(F)(F)F)nc2[nH]cc(-c3cc(F)c4nccn4c3)c12 [Compound 2183, (R)-5-(8-Fluoroimidazo[1,2-a]pyridin-6-yl)-4-methoxy-N-(1,1,1-trifluoropropan-2-yl)-7H-pyrrolo[2,3-d]pyrimidin-2-amine] | 10.4
2 | COc1nc(N[C@H]2CC[C@@](C)(O)CC2)nc2[nH]cc(-c3cc(F)c4nccn4c3)c12 [Compound 2186, cis-4-((5-(8-Fluoroimidazo[1,2-a]pyridin-6-yl)-4-methoxy-7H-pyrrolo[2,3-d]pyrimidin-2-yl)amino)-1-methylcyclohexan-1-ol] | 2.3
3 | COc1nc(N[C@H]2CC[C@@H](OCC(F)F)CC2)nc2[nH]cc(-c3cc(F)c4nccn4c3)c12 [Compound 2187, N-(cis-4-(2,2-Difluoroethoxy)cyclohexyl)-5-(8-fluoroimidazo[1,2-a]pyridin-6-yl)-4-methoxy-7H-pyrrolo[2,3-d]pyrimidin-2-amine] | 3.6
4 | CCOc1nc(N[C@H]2CC[C@@H](O)CC2)nc2[nH]cc(-c3cc(F)c4nccn4c3)c12 [Compound 2190, cis-4-((4-Ethoxy-5-(8-fluoroimidazo[1,2-a]pyridin-6-yl)-7H-pyrrolo[2,3-d]pyrimidin-2-yl)amino)cyclohexan-1-ol] | 3
5 | Cn1nnc2ccc(-c3c[nH]c4nc(N[C@H]5CC[C@@](C)(O)CC5)ncc34)cc21 [Compound 2191, cis-1-Methyl-4-((5-(1-methyl-1H-benzo[d][1,2,3]triazol-6-yl)-7H-pyrrolo[2,3-d]pyrimidin-2-yl)amino)cyclohexan-1-ol] | 4.7
6 | COC[C@@H](C)Nc1nc(OC)c2c(-c3ccc4nnn(C)c4c3)c[nH]c2n1 [Compound 2194, (R)-4-Methoxy-N-(1-methoxypropan-2-yl)-5-(1-methyl-1H-benzo[d][1,2,3]triazol-6-yl)-7H-pyrrolo[2,3-d]pyrimidin-2-amine] | 5.5
7 | COc1nc(NC2CCN(C)CC2)nc2[nH]cc(-c3ccc4nnn(C)c4c3)c12 [Compound 2195, 4-Methoxy-5-(1-methyl-1H-benzo[d][1,2,3]triazol-6-yl)-N-(1-methylpiperidin-4-yl)-7H-pyrrolo[2,3-d]pyrimidin-2-amine] | 9.4
8 | CCOc1nc(N[C@H]2CC[C@@H](O)CC2)nc2[nH]cc(-c3ccc4nnn(C)c4c3)c12 [Compound 2197, cis-4-((4-Ethoxy-5-(1-methyl-1H-benzo[d][1,2,3]triazol-6-yl)-7H-pyrrolo[2,3-d]pyrimidin-2-yl)amino)cyclohexan-1-ol] | 1.5
9 | COc1nc(NC2CCC(F)(F)CC2)nc2[nH]cc(-c3ccc4nnn(CC(F)F)c4c3)c12 [Compound 2198, N-(4,4-Difluorocyclohexyl)-5-(1-(2,2-difluoroethyl)-1H-benzo[d][1,2,3]triazol-6-yl)-4-methoxy-7H-pyrrolo[2,3-d]pyrimidin-2-amine] | 170
10 | FC(F)CO[C@H]1CC[C@@H](Nc2ncc3c(-c4ccn5nccc5c4)c[nH]c3n2)CC1 [Compound 2201, N-(cis-4-(2,2-Difluoroethoxy)cyclohexyl)-5-(pyrazolo[1,5-a]pyridin-5-yl)-7H-pyrrolo[2,3-d]pyrimidin-2-amine] | 5
11 | COc1nc(N[C@H](C)C(F)(F)F)nc2[nH]cc(-c3ccn4nccc4c3)c12 [Compound 2204, (R)-4-Methoxy-5-(pyrazolo[1,5-a]pyridin-5-yl)-N-(1,1,1-trifluoropropan-2-yl)-7H-pyrrolo[2,3-d]pyrimidin-2-amine] | 15.4
12 | [2H]C([2H])([2H])O[C@H]1CC[C@@H](Nc2nc(OC)c3c(-c4ccn5nccc5c4)c[nH]c3n2)CC1 [Compound 2210, 4-Methoxy-N-(cis-4-(methoxy-d3)cyclohexyl)-5-(pyrazolo[1,5-a]pyridin-5-yl)-7H-pyrrolo[2,3-d]pyrimidin-2-amine] | 3.4
13 | COc1nc(N[C@H]2CC[C@@H](OC(F)F)CC2)nc2[nH]cc(-c3ccn4nccc4c3)c12 [Compound 2211, N-(cis-4-(Difluoromethoxy)cyclohexyl)-4-methoxy-5-(pyrazolo[1,5-a]pyridin-5-yl)-7H-pyrrolo[2,3-d]pyrimidin-2-amine] | 126
14 | COc1nc(N[C@H]2CC[C@@H](OCCO)CC2)nc2[nH]cc(-c3ccn4nccc4c3)c12 [Compound 2213, 2-((cis-4-((4-Methoxy-5-(pyrazolo[1,5-a]pyridin-5-yl)-7H-pyrrolo[2,3-d]pyrimidin-2-yl)amino)cyclohexyl)oxy)ethan-1-ol] | 71.9
15 | COCCO[C@H]1CC[C@@H](Nc2nc(OC)c3c(-c4ccn5nccc5c4)c[nH]c3n2)CC1 [Compound 2214, 4-Methoxy-N-(cis-4-(2-methoxyethoxy)cyclohexyl)-5-(pyrazolo[1,5-a]pyridin-5-yl)-7H-pyrrolo[2,3-d]pyrimidin-2-amine] | 1.7

More lines, now with the values ahead:

Row | EC50 [nM] | Structure (SMILES)
16 | 69.9 | COC[C@@H](C)Nc1nc(OC)c2c(-c3cc(F)c4nccn4c3)c[nH]c2n1 [Compound 2184]
17 | 82 | COc1nc(NC2CCC(F)(F)CC2)nc2[nH]cc(-c3cc(F)c4nccn4c3)c12 [Compound 2185, N-(4,4-Difluorocyclohexyl)-5-(8-fluoroimidazo[1,2-a]pyridin-6-yl)-4-methoxy-7H-pyrrolo[2,3-d]pyrimidin-2-amine]
18 | 1.9 | COc1nc(NC2CCC3(CC2)OCCO3)nc2[nH]cc(-c3cc(F)c4nccn4c3)c12 [Compound 2188, 5-(8-Fluoroimidazo[1,2-a]pyridin-6-yl)-4-methoxy-N-(1,4-dioxaspiro[4.5]decan-8-yl)-7H-pyrrolo[2,3-d]pyrimidin-2-amine]
19 | 8.1 | CCOc1nc(N[C@H](C)C(F)(F)F)nc2[nH]cc(-c3cc(F)c4nccn4c3)c12 [Compound 2189, (R)-4-Ethoxy-5-(8-fluoroimidazo[1,2-a]pyridin-6-yl)-N-(1,1,1-trifluoropropan-2-yl)-7H-pyrrolo[2,3-d]pyrimidin-2-amine]
20 | 6.9 | Cn1nnc2ccc(-c3c[nH]c4nc(N[C@H]5CC[C@@H](OCC(F)F)CC5)ncc34)cc21 [Compound 2192, N-(cis-4-(2,2-Difluoroethoxy)cyclohexyl)-5-(1-methyl-1H-benzo[d][1,2,3]triazol-6-yl)-7H-pyrrolo[2,3-d]pyrimidin-2-amine]
21 | 2.1 | COc1nc(N[C@H](C)C(F)(F)F)nc2[nH]cc(-c3ccc4nnn(C)c4c3)c12 [Compound 2193, (R)-4-Methoxy-5-(1-methyl-1H-benzo[d][1,2,3]triazol-6-yl)-N-(1,1,1-trifluoropropan-2-yl)-7H-pyrrolo[2,3-d]pyrimidin-2-amine]
22 | 11.6 | CCOc1nc(N[C@H](C)C(F)(F)F)nc2[nH]cc(-c3ccc4nnn(C)c4c3)c12 [Compound 2196, (R)-4-Ethoxy-5-(1-methyl-1H-benzo[d][1,2,3]triazol-6-yl)-N-(1,1,1-trifluoropropan-2-yl)-7H-pyrrolo[2,3-d]pyrimidin-2-amine]
23 | 2.2 | FC(F)CO[C@H]1CC[C@@H](Nc2ncc3c(-c4ccc5nccn5n4)c[nH]c3n2)CC1 [Compound 2199, N-(cis-4-(2,2-Difluoroethoxy)cyclohexyl)-5-(imidazo[1,2-b]pyridazin-6-yl)-7H-pyrrolo[2,3-d]pyrimidin-2-amine]
24 | 2.6 | [2H]C([2H])([2H])O[C@H]1CC[C@@H](Nc2ncc3c(-c4ccn5nccc5c4)c[nH]c3n2)CC1 [Compound 2200, N-(cis-4-(Methoxy-d3)cyclohexyl)-5-(pyrazolo[1,5-a]pyridin-5-yl)-7H-pyrrolo[2,3-d]pyrimidin-2-amine]
25 | 3.9 | OCCO[C@H]1CC[C@@H](Nc2ncc3c(-c4ccn5nccc5c4)c[nH]c3n2)CC1 [Compound 2202, 2-((cis-4-((5-(Pyrazolo[1,5-a]pyridin-5-yl)-7H-pyrrolo[2,3-d]pyrimidin-2-yl)amino)cyclohexyl)oxy)ethan-1-ol]
26 | 3.4 | COCCO[C@H]1CC[C@@H](Nc2ncc3c(-c4ccn5nccc5c4)c[nH]c3n2)CC1 [Compound 2203, N-(cis-4-(2-Methoxyethoxy)cyclohexyl)-5-(pyrazolo[1,5-a]pyridin-5-yl)-7H-pyrrolo[2,3-d]pyrimidin-2-amine]
27 | 79.5 | COC[C@@H](C)Nc1nc(OC)c2c(-c3ccn4nccc4c3)c[nH]c2n1 [Compound 2205, (R)-4-Methoxy-N-(1-methoxypropan-2-yl)-5-(pyrazolo[1,5-a]pyridin-5-yl)-7H-pyrrolo[2,3-d]pyrimidin-2-amine]
28 | 3.2 | COc1nc(NC2CCC(F)(F)CC2)nc2[nH]cc(-c3ccn4nccc4c3)c12 [Compound 2206, N-(4,4-Difluorocyclohexyl)-4-methoxy-5-(pyrazolo[1,5-a]pyridin-5-yl)-7H-pyrrolo[2,3-d]pyrimidin-2-amine]
29 | 1.7 | COc1nc(N[C@H]2CC[C@@H](O)CC2)nc2[nH]cc(-c3ccn4nccc4c3)c12 [Compound 2207, cis-4-((4-Methoxy-5-(pyrazolo[1,5-a]pyridin-5-yl)-7H-pyrrolo[2,3-d]pyrimidin-2-yl)amino)cyclohexan-1-ol]
30 | 4.3 | COc1nc(N[C@H]2CC[C@@](C)(O)CC2)nc2[nH]cc(-c3ccn4nccc4c3)c12 [Compound 2208, cis-4-((4-Methoxy-5-(pyrazolo[1,5-a]pyridin-5-yl)-7H-pyrrolo[2,3-d]pyrimidin-2-yl)amino)-1-methylcyclohexan-1-ol]
31 | 1.6 | COc1nc(N[C@H]2CC[C@](C)(O)CC2)nc2[nH]cc(-c3ccn4nccc4c3)c12 [Compound 2209, trans-4-((4-Methoxy-5-(pyrazolo[1,5-a]pyridin-5-yl)-7H-pyrrolo[2,3-d]pyrimidin-2-yl)amino)-1-methylcyclohexan-1-ol]
32 | 6.6 | COc1nc(N[C@H]2CC[C@@H](OCC(F)F)CC2)nc2[nH]cc(-c3ccn4nccc4c3)c12 [Compound 2212, N-(cis-4-(2,2-Difluoroethoxy)cyclohexyl)-4-methoxy-5-(pyrazolo[1,5-a]pyridin-5-yl)-7H-pyrrolo[2,3-d]pyrimidin-2-amine]
